According to patent US9938264B2, “Proteolysis targeting chimera compounds and methods of preparing and using same” (YALE UNIVERSITY, priority 2015, dated 2018):
Where two headings read alike, the source gives them in different places.

Assays:
[1] = molecular target: T1, non-phosphorylated c-ABL kinase domain (Homo sapiens, UniProt P00519); assay: KinomeScan in vitro binding affinity (Kd), non-phosphorylated c-ABL kinase domain
T1 construct: phosphorylated and non-phosphorylated c-ABL kinase domain; purchased DiscoverRx Corporation (KinomeScan platform)
T1 sequence (P00519 242-493 limits assumed): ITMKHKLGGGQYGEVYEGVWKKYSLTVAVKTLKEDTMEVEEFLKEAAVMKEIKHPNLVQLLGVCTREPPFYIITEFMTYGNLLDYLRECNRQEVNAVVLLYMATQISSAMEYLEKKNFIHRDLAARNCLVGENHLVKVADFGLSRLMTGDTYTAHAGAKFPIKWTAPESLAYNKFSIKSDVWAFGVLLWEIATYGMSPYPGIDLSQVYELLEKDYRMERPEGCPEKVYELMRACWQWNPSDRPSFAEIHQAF
Description: (§1) PROTAC in vitro binding affinities (Kd) to phosphorylated and non-phosphorylated c-ABL kinase domain were determined using the KinomeScan platform (DiscoverRx Corporation). The compounds were solubilized in DMSO and sent to DiscoverRx Corporation as a 10 μM stock solution.

[2] = molecular target: T2, phosphorylated c-ABL kinase domain (Homo sapiens, UniProt P00519); assay: KinomeScan in vitro binding affinity (Kd), phosphorylated c-ABL kinase domain
T2 construct: phosphorylated and non-phosphorylated c-ABL kinase domain; purchased DiscoverRx Corporation (KinomeScan platform)
T2 sequence (P00519 242-493 limits assumed): T1 sequence (P00519 242-493 limits assumed)
Description: as §1

[3] = Table 2, read-out: ABL (non-phosphorylated)
[4] = Table 2, read-out: ABL (phosphorylated)
[5] = Table 1, ABL kinase domain, read-out: ABL (non-phosphorylated) affinity
[6] = Table 1, ABL kinase domain, read-out: ABL (phosphorylated) affinity

Structure (SMILES)	Kd [1, 3] [nM]	Kd [2, 4] [nM]	Kd [1, 5] [nM]	Kd [2, 6] [nM]
Cc1ccc(NC(=O)c2ccc(CN3CCN(CCCCCCOCCOCCOCCOCCOCCOCC(=O)Nc4cccc5c4C(=O)N(C4CCC(=O)NC4=O)C5=O)CC3)cc2)cc1Nc1nccc(-c2cccnc2)n1 (stereo not shown) [IMA-6-(2-)5-2-CRBN, N-(2-(2,6-dioxopiperidin-3-yl)-1,3-dioxoisoindolin-4-yl)-24-(4-(4-((4-methyl-3-((4-(pyridin-3-yl)pyrimidin-2-yl)amino)phenyl)carbamoyl)benzyl)piperazin-1-yl)-3,6,9,12,15,18-hexaoxatetracosanamide]	3	84	–	–
Cc1ccc(NC(=O)c2ccc(CN3CCN(CCCCCCOCCOCC(=O)N[C@H](C(=O)N4C[C@H](O)C[C@H]4C(=O)NCc4ccc(-c5scnc5C)cc4)C(C)(C)C)CC3)cc2)cc1Nc1nccc(-c2cccnc2)n1 [IMA-6-2-2-VHL, (2S,4R)-1-((S)-3,3-dimethyl-2-(2-(2-((6-(4-(4-((4-methyl-3-((4-(pyridin-3-yl)pyrimidin-2-yl)amino)phenyl)carbamoyl)benzyl)piperazin-1-yl)hexyl)oxy)ethoxy)acetamido)butanoyl)-4-hydroxy-N-(4-(4-methylthiazol-5-yl)benzyl)pyrrolidine-2-carboxamide]	5.8	98	–	–
Cc1ccc(NC(=O)c2ccc(CN3CCN(CCCCCCOCCOCCOCCCCCC(=O)N[C@H](C(=O)N4C[C@H](O)C[C@H]4C(=O)NCc4ccc(-c5scnc5C)cc4)C(C)(C)C)CC3)cc2)cc1Nc1nccc(-c2cccnc2)n1 [IMA-6-2-2-6-VHL, (2S,4R)-1-((S)-2-(tert-butyl)-22-(4-(4-((4-methyl-3-((4-(pyridin-3-yl)pyrimidin-2-yl)amino)phenyl)carbamoyl)benzyl)piperazin-1-yl)-4-oxo-10,13,16-trioxa-3-azadocosanoyl)-4-hydroxy-N-(4-(4-methylthiazol-5-yl)benzyl)pyrrolidine-2-carboxamide]	–	–	4.3	93
Cc1ccc(NC(=O)c2ccc(CN3CCN(CCCCCCOCCCCCOCCCCCC(=O)N[C@H](C(=O)N4C[C@H](O)C[C@H]4C(=O)NCc4ccc(-c5scnc5C)cc4)C(C)(C)C)CC3)cc2)cc1Nc1nccc(-c2cccnc2)n1 [IMA-6-5-6-VHL, (2S,4R)-1-((S)-3,3-dimethyl-2-(6-((5-((6-(4-(4-((4-methyl-3-((4-(pyridin-3-yl)pyrimidin-2-yl)amino)phenyl)carbamoyl)benzyl)piperazin-1-yl)hexyl)oxy)pentyl)oxy)hexanamido)butanoyl)-4-hydroxy-N-(4-(4-methylthiazol-5-yl)benzyl)pyrrolidine-2-carboxamide]	19	46	–	–
Cc1nc(Nc2ncc(C(=O)Nc3c(C)cccc3Cl)s2)cc(N2CCN(CCCCCCOCCOCC(=O)Nc3cccc4c3C(=O)N(C3CCC(=O)NC3=O)C4=O)CC2)n1 (stereo not shown) [DAS-6-2-2-CRBN, N-(2-chloro-6-methylphenyl)-2-((6-(4-(6-(2-(2-((2-(2,6-dioxopiperidin-3-yl)-1,3-dioxoisoindolin-4-yl)amino)-2-oxoethoxy)ethoxy)hexyl)piperazin-1-yl)-2-methylpyrimidin-4-yl)amino)thiazole-5-carboxamide]	0.28	0.19	–	–
Cc1ccc(NC(=O)c2ccc(CN3CCN(CCCCCCOCCCCCOCCCCCC(=O)Nc4cccc5c4C(=O)N(C4CCC(=O)NC4=O)C5=O)CC3)cc2)cc1Nc1nccc(-c2cccnc2)n1 (stereo not shown) [IMA-6-5-6-CRBN, 4-((4-(6-((5-((6-((2-(2,6-dioxopiperidin-3-yl)-1,3-dioxoisoindolin-4-yl)amino)-6-oxohexyl)oxy)pentyl)oxy)hexyl)piperazin-1-yl)methyl)-N-(4-methyl-3-((4-(pyridin-3-yl)pyrimidin-2-yl)amino)phenyl)benzamide]	24	360	–	–
Cc1ccc(NC(=O)c2ccc(CN3CCN(CCCCCCOCCOCCOCCOCCOCCOCC(=O)N[C@H](C(=O)N4C[C@H](O)C[C@H]4C(=O)NCc4ccc(-c5scnc5C)cc4)C(C)(C)C)CC3)cc2)cc1Nc1nccc(-c2cccnc2)n1 [IMA-6-(2-)5-2-VHL, (2S,4R)-1-((S)-2-(tert-butyl)-27-(4-(4-((4-methyl-3-((4-(pyridin-3-yl)pyrimidin-2-yl)amino)phenyl)carbamoyl)benzyl)piperazin-1-yl)-4-oxo-6,9,12,15,18,21-hexaoxa-3-azaheptacosanoyl)-4-hydroxy-N-(4-(4-methylthiazol-5-yl)benzyl)pyrrolidine-2-carboxamide]	1.7	35	–	–
COc1cc(Nc2c(C#N)cnc3cc(OCCCN4CCN(CCCCCCOCCOCCOCCCCCC(=O)Nc5cccc6c5C(=O)N(C5CCC(=O)NC5=O)C6=O)CC4)c(OC)cc23)c(Cl)cc1Cl (stereo not shown) [BOS-6-2-2-6-CRBN, 6-(2-(2-((6-(4-(3-((3-cyano-4-((2,4-dichloro-5-methoxyphenyl)amino)-6-methoxyquinolin-7-yl)oxy)propyl)piperazin-1-yl)hexyl)oxy)ethoxy)ethoxy)-N-(2-(2,6-dioxopiperidin-3-yl)-1,3-dioxoisoindolin-4-yl)hexanamide]	0.91	0.55	–	–
COc1cc(Nc2c(C#N)cnc3cc(OCCCN4CCN(CCCCCCOCCCCCOCCCCCC(=O)N[C@H](C(=O)N5C[C@H](O)C[C@H]5C(=O)NCc5ccc(-c6scnc6C)cc5)C(C)(C)C)CC4)c(OC)cc23)c(Cl)cc1Cl [BOS-6-5-6-VHL, (2S,4R)-1-((S)-2-(6-((5-((6-(4-(3-((3-cyano-4-((2,4-dichloro-5-methoxyphenyl)amino)-6-methoxyquinolin-7-yl)oxy)propyl)piperazin-1-yl)hexyl)oxy)pentyl)oxy)hexanamido)-3,3-dimethylbutanoyl)-4-hydroxy-N-(4-(4-methylthiazol-5-yl)benzyl)pyrrolidine-2-carboxamide]	4.6	1.5	–	–
COc1cc(Nc2c(C#N)cnc3cc(OCCCN4CCN(CCCCCCOCCOCCOCCCCCC(=O)N[C@H](C(=O)N5C[C@H](O)C[C@H]5C(=O)NCc5ccc(-c6scnc6C)cc5)C(C)(C)C)CC4)c(OC)cc23)c(Cl)cc1Cl [BOS-6-2-2-6-VHL, (2S,4R)-1-((S)-2-(tert-butyl)-22-(4-(3-((3-cyano-4-((2,4-dichloro-5-methoxyphenyl)amino)-6-methoxyquinolin-7-yl)oxy)propyl)piperazin-1-yl)-4-oxo-10,13,16-trioxa-3-azadocosanoyl)-4-hydroxy-N-(4-(4-methylthiazol-5-yl)benzyl)pyrrolidine-2-carboxamide]	–	–	1.4	0.63
Cc1ccc(NC(=O)c2ccc(CN3CCN(CCCCCCOCCOCCOCCCCCC(=O)Nc4cccc5c4C(=O)N(C4CCC(=O)NC4=O)C5=O)CC3)cc2)cc1Nc1nccc(-c2cccnc2)n1 (stereo not shown) [IMA-6-2-2-6-CRBN, 4-((4-(6-(2-(2-((6-((2-(2,6-dioxopiperidin-3-yl)-1,3-dioxoisoindolin-4-yl)amino)-6-oxohexyl)oxy)ethoxy)ethoxy)hexyl)piperazin-1-yl)methyl)-N-(4-methyl-3-((4-(pyridin-3-yl)pyrimidin-2-yl)amino)phenyl)benzamide]	–	–	6.2	110
Cc1nc(Nc2ncc(C(=O)Nc3c(C)cccc3Cl)s2)cc(N2CCN(CCCCCCOCCCCCOCCCCCC(=O)Nc3cccc4c3C(=O)N(C3CCC(=O)NC3=O)C4=O)CC2)n1 (stereo not shown) [DAS-6-5-6-CRBN, N-(2-chloro-6-methylphenyl)-2-((6-(4-(6-((5-((6-((2-(2,6-dioxopiperidin-3-yl)-1,3-dioxoisoindolin-4-yl)amino)-6-oxohexyl)oxy)pentyl)oxy)hexyl)piperazin-1-yl)-2-methylpyrimidin-4-yl)amino)thiazole-5-carboxamide]	1.3	1.4	–	–
Cc1ccc(NC(=O)c2ccc(CN3CCN(CCCCCCOCCOCC(=O)Nc4cccc5c4C(=O)N(C4CCC(=O)NC4=O)C5=O)CC3)cc2)cc1Nc1nccc(-c2cccnc2)n1 (stereo not shown) [IMA-6-2-2-CRBN, 4-((4-(6-(2-(2-((2-(2,6-dioxopiperidin-3-yl)-1,3-dioxoisoindolin-4-yl)amino)-2-oxoethoxy)ethoxy)hexyl)piperazin-1-yl)methyl)-N-(4-methyl-3-((4-(pyridin-3-yl)pyrimidin-2-yl)amino)phenyl)benzamide]	4.7	72	–	–
COc1cc(Nc2c(C#N)cnc3cc(OCCCN4CCN(CCCCCCOCCCCCOCCCCCC(=O)Nc5cccc6c5C(=O)N(C5CCC(=O)NC5=O)C6=O)CC4)c(OC)cc23)c(Cl)cc1Cl (stereo not shown) [BOS-6-5-6-CRBN, 6-((5-((6-(4-(3-((3-cyano-4-((2,4-dichloro-5-methoxyphenyl)amino)-6-methoxyquinolin-7-yl)oxy)propyl)piperazin-1-yl)hexyl)oxy)pentyl)oxy)-N-(2-(2,6-dioxopiperidin-3-yl)-1,3-dioxoisoindolin-4-yl)hexanamide]	2.8	1.1	–	–
